Assay results as given in patent publication US8192962B2, “Processes for detecting toxic substances” (Daikin Industries, Ltd., priority 2001, dated 2012).

System: Genes belonging to other category
Test: DNA chip mRNA expression in yeast, genes belonging to other category (Table 9)
Type: cell-based, Saccharomyces cerevisiae S288C
Protocol: Yeast (Saccharomyces cerevisiae S288C (α SUC2mal mel gap2 CUP1)) were incubated at 25° C. on YPD medium (yeast extract 1%, polypepton 2%, glucose 2%). One of toxic chemical substances was added to the cells at logarithmic growth phase, and the cells were further incubated for two hours. Cells were cultured without any chemical substance in the same condition, and were used as control. Concentrations of the chemical substances were defined to inhibit the growth of the yeast but not lead to death.
After completion of the incubation, the culture was centrifuged to collect the cells. To the cells, sodium acetate buffer (50 mM sodium acetate, 10 mM EDTA, 1% SDS) was added, and the mixture was shaken at 65° C. for five minutes, followed by returning to room temperature, and obtaining the supernatant, of which the procedures were repeated two times. To the supernatant, ½ amount of a solution of phenol/chloroform was added, and the mixture was centrifuged to give a supernatant, which was added with an equal amount of chloroform, and the mixture was centrifuged to give a supernatant. To the supernatant, an equal amount of isopropanol containing 0.3 M sodium acetate was added, and the mixture was allowed to stand at room temperature for 30 minutes, after which the mixture was centrifuged to give a sediment of the whole RNAs. Seventy % ethanol was added to the sediment, and the mixture was again centrifuged to give a sediment, which was then dried and dissolved in water. mRNA was isolated from the whole RNAs as followings. In view of the fact that a poly A chain is attached to the 3′ terminus of mRNA, a polynucleotide having a poly T structure which was immobilized on the surface of latex beads was used to trap the mRNA, and then the mRNA was washed and eluted with spine column (Oligotex-dT30<Super>mRNA Purification Kit, Takara). Reverse transcription of the mRNA was conducted with a reverse transcriptase (Super Script II Reverse Transcriptase; catalogue No. 18064-014, GibcoBRL) using fluorescence-labeled nucleotides to give cDNAs that were introduced with Cy3-dUTP or Cy5-dUTP during the reverse transcription.
The labeled cDNAs were dissolved in TE buffer (10mM Tris-HCl/1 mM EDTA, pH8.0), and the solution was dropped on the DNA chip containing the whole genes of yeast (DNA Chip Research Inc. Japan) so that the cDNAs were hybridized on the DNA chip at 65° C. for over 12 hours. The fluoresces intensity of the DNA chip was read with a scanner, and the ratio relative to the fluorescence intensity resulting from the absence of chemical substance was estimated as the following, which is shown in Tables 1 to 9: […]

C=CC=O [(14), acrolein]
The level of expressed mRNA in the presence of chemical substance/The level of expressed mRNA in the absence of chemical substance (yeast gene YMR104C): 1.1
The level of expressed mRNA in the presence of chemical substance/The level of expressed mRNA in the absence of chemical substance (yeast gene YMR219W): 0.5
The level of expressed mRNA in the presence of chemical substance/The level of expressed mRNA in the absence of chemical substance (yeast gene YMR226C): 1.6
The level of expressed mRNA in the presence of chemical substance/The level of expressed mRNA in the absence of chemical substance (yeast gene YMR262W): 0.9
The level of expressed mRNA in the presence of chemical substance/The level of expressed mRNA in the absence of chemical substance (yeast gene YMR275C): 0.8
The level of expressed mRNA in the presence of chemical substance/The level of expressed mRNA in the absence of chemical substance (yeast gene YMR276W): 1.2
The level of expressed mRNA in the presence of chemical substance/The level of expressed mRNA in the absence of chemical substance (yeast gene YMR314W): 1.0
The level of expressed mRNA in the presence of chemical substance/The level of expressed mRNA in the absence of chemical substance (yeast gene YNL006W): 0.8
The level of expressed mRNA in the presence of chemical substance/The level of expressed mRNA in the absence of chemical substance (yeast gene YNL007C): 0.4
The level of expressed mRNA in the presence of chemical substance/The level of expressed mRNA in the absence of chemical substance (yeast gene YNL093W): 1.1
The level of expressed mRNA in the presence of chemical substance/The level of expressed mRNA in the absence of chemical substance (yeast gene YNL333W): 1.9
The level of expressed mRNA in the presence of chemical substance/The level of expressed mRNA in the absence of chemical substance (yeast gene YNR007C): 1.5
The level of expressed mRNA in the presence of chemical substance/The level of expressed mRNA in the absence of chemical substance (yeast gene YNR010W): 1.3
The level of expressed mRNA in the presence of chemical substance/The level of expressed mRNA in the absence of chemical substance (yeast gene YNR069C): 2.1
The level of expressed mRNA in the presence of chemical substance/The level of expressed mRNA in the absence of chemical substance (yeast gene YOL013C): 0.9
The level of expressed mRNA in the presence of chemical substance/The level of expressed mRNA in the absence of chemical substance (yeast gene YOL038W): 2.1
The level of expressed mRNA in the presence of chemical substance/The level of expressed mRNA in the absence of chemical substance (yeast gene YOL109W): 1.4
The level of expressed mRNA in the presence of chemical substance/The level of expressed mRNA in the absence of chemical substance (yeast gene YOL164W): 1.3
The level of expressed mRNA in the presence of chemical substance/The level of expressed mRNA in the absence of chemical substance (yeast gene YOR036W): 1.2
The level of expressed mRNA in the presence of chemical substance/The level of expressed mRNA in the absence of chemical substance (yeast gene YOR117W): 1.0
The level of expressed mRNA in the presence of chemical substance/The level of expressed mRNA in the absence of chemical substance (yeast gene YOR124C): 0.8
The level of expressed mRNA in the presence of chemical substance/The level of expressed mRNA in the absence of chemical substance (yeast gene YOR132W): 0.7
The level of expressed mRNA in the presence of chemical substance/The level of expressed mRNA in the absence of chemical substance (yeast gene YOR157C): 2.2
The level of expressed mRNA in the presence of chemical substance/The level of expressed mRNA in the absence of chemical substance (yeast gene YOR181W): 0.9
The level of expressed mRNA in the presence of chemical substance/The level of expressed mRNA in the absence of chemical substance (yeast gene YOR185C): 2.1
The level of expressed mRNA in the presence of chemical substance/The level of expressed mRNA in the absence of chemical substance (yeast gene YOR198C): 1.1
The level of expressed mRNA in the presence of chemical substance/The level of expressed mRNA in the absence of chemical substance (yeast gene YOR229W): 1.0
The level of expressed mRNA in the presence of chemical substance/The level of expressed mRNA in the absence of chemical substance (yeast gene YOR257W): 1.5
The level of expressed mRNA in the presence of chemical substance/The level of expressed mRNA in the absence of chemical substance (yeast gene YOR259C): 1.2
The level of expressed mRNA in the presence of chemical substance/The level of expressed mRNA in the absence of chemical substance (yeast gene YOR261C): 1.8
The level of expressed mRNA in the presence of chemical substance/The level of expressed mRNA in the absence of chemical substance (yeast gene YOR265W): 2.5
The level of expressed mRNA in the presence of chemical substance/The level of expressed mRNA in the absence of chemical substance (yeast gene YOR288C): 0.8
The level of expressed mRNA in the presence of chemical substance/The level of expressed mRNA in the absence of chemical substance (yeast gene YOR298W): 2.1
The level of expressed mRNA in the presence of chemical substance/The level of expressed mRNA in the absence of chemical substance (yeast gene YOR327C): 1.5
The level of expressed mRNA in the presence of chemical substance/The level of expressed mRNA in the absence of chemical substance (yeast gene YOR355W): 0.6
The level of expressed mRNA in the presence of chemical substance/The level of expressed mRNA in the absence of chemical substance (yeast gene YOR362C): 1.4
The level of expressed mRNA in the presence of chemical substance/The level of expressed mRNA in the absence of chemical substance (yeast gene YOR367W): 1.5
The level of expressed mRNA in the presence of chemical substance/The level of expressed mRNA in the absence of chemical substance (yeast gene YOR383C): 0.6
The level of expressed mRNA in the presence of chemical substance/The level of expressed mRNA in the absence of chemical substance (yeast gene YPL089C): 0.8
The level of expressed mRNA in the presence of chemical substance/The level of expressed mRNA in the absence of chemical substance (yeast gene YPL109C): 1.3
The level of expressed mRNA in the presence of chemical substance/The level of expressed mRNA in the absence of chemical substance (yeast gene YPL149W): 1.0
The level of expressed mRNA in the presence of chemical substance/The level of expressed mRNA in the absence of chemical substance (yeast gene YPL154C): 0.8
The level of expressed mRNA in the presence of chemical substance/The level of expressed mRNA in the absence of chemical substance (yeast gene YPL218W): 1.5
The level of expressed mRNA in the presence of chemical substance/The level of expressed mRNA in the absence of chemical substance (yeast gene YPR015C): 1.5
The level of expressed mRNA in the presence of chemical substance/The level of expressed mRNA in the absence of chemical substance (yeast gene YPR073C): 1.5
The level of expressed mRNA in the presence of chemical substance/The level of expressed mRNA in the absence of chemical substance (yeast gene YPR103W): 1.8
The level of expressed mRNA in the presence of chemical substance/The level of expressed mRNA in the absence of chemical substance (yeast gene YPR108W): 1.0
The level of expressed mRNA in the presence of chemical substance/The level of expressed mRNA in the absence of chemical substance (yeast gene YPR185W): 1.0
